Target: T1, aldosterone synthase (CYP11B2) (Homo sapiens, UniProt P19099)
T1 sequence (P19099 25-503): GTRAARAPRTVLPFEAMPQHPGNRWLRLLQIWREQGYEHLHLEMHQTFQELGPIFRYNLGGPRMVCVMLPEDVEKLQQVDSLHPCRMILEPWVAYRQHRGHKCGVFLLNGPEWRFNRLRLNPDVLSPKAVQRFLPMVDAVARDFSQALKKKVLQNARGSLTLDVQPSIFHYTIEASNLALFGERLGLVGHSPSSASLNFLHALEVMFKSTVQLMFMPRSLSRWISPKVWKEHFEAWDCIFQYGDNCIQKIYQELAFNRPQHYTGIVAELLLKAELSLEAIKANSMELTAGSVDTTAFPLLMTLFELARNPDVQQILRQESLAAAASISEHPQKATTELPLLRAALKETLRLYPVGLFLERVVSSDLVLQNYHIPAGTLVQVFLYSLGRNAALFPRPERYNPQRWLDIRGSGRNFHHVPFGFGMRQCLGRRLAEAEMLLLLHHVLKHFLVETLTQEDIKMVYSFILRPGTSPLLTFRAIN
Assay: aldosterone production by cells expressing the recombinant enzyme
Type: cell-based

CCC(=O)N[C@@H]1CCCc2c(-c3ccc4c(c3)CCC(=O)N4C)cncc21 [RO6836191]
Ki: 13 nM

From PMC5142369 (Hypertension (Dallas, Tex. : 1979), 2016)
